{"source": "patent US20180201694A1", "about": "“CHITIN DERIVATIVES, METHOD FOR PRODUCTION AND USES THEREOF” (JAWAHARLAL NEHRU CENTRE FOR ADVANCED SCIENTIFIC RESEARCH …, priority 2013, published 2018)", "type_in_all_cases": "cell-based", "key": {"E. coli": {"tested_on": "E. coli", "test": "In-vitro antibacterial activity (MIC/MBC), coated 96-well plate", "settings": "10^5 CFU/mL, 37° C., 24 h, composite as (1c+AgPTS)", "method": "(§1) Chitin derivatives were first dissolved in methanol (50 mg/mL) and the solutions were serially diluted. 20 μL of the solutions of different concentrations were added into wells of a 96-well plate. The solution was first air-dried and finally dried in vacuum oven to make a film onto the flat-bottom surface of wells of 96-well plate. Each concentration was applied in triplicate for all the samples to study the antibacterial activity. In order to make films on surfaces such as microscopic glass slide, methanolic solutions of polymer (350 μL) were spin coated onto the glass surface by using a spin coater. […] To prepare thin films, mixed solutions (350 μL) obtained from the solutions of these medically relevant polymers in chloroform and methanolic solution of the chitin derivatives (CHCl3: MeOH=9:1) were spin coated onto the glass surface and dried in air. For the biodegradation study, thin films of the chitin derivatives were prepared on microscopic cover glass.\n(§2) To determine the antibacterial activity of the synthesized polymers, 200 μL of 10^5 CFU/mL of bacteria were added to the wells of 96-well plate coated with the chitin derivatives with different amounts. […] The data was then subjected to sigmoidal fitting."}, "S. aureus [1]": {"tested_on": "S. aureus", "test": "In-vitro antibacterial activity (MIC/MBC), coated 96-well plate", "settings": "10^5 CFU/mL, 37° C., 24 h, composite as (1c+AgPTS)", "method": "as §1, §2"}, "S. aureus [2]": {"tested_on": "S. aureus", "test": "Antibacterial kinetics", "settings": "coated at 6×MIC; followed upto 360 min", "experimental": "A quantity of 200 μL of a solution containing approximately 4.9×10^5 CFU/mL of S. aureus in nutrient broth and 5.1×10^5 CFU/mL in Luria-Bertani (LB) broth were added, and the plates were kept in an incubated shaker at 37° C. The initial time of addition of the bacteria to the wells was taken as zero, and 10 μL aliquots were withdrawn from each of the wells at set time intervals. These aliquots were added immediately to 90 μL of 0.9% saline. These solutions were further diluted by a factor of 10, and 20 μL of all the dilutions was plated on nutrient or LB agar plates immediately. The plates were incubated at 37° C. for 24 h; and bacterial colonies were counted. A plot of CFU (Log10 CFU/mL) versus time was then plotted.\nAntibacterial kinetics assay was performed similarly as mentioned earlier."}}, "data": [{"molecule": "Cc1ccc(S(=O)(=O)[O-])cc1.[Ag+]", "note": "[AgPTS, silver para-toluene sulfonate]", "values": [{"measurement": "MIC", "setting": "E. coli", "value": 10, "unit": "µg/mL"}, {"measurement": "MIC", "setting": "S. aureus [1]", "value": 39, "unit": "µg/mL"}, {"measurement": "Time at which S. aureus was killed", "setting": "S. aureus [2]", "value": "bacteriostatic"}]}]}
